Laboratory results published in patent publication US8207134B2, “Fused ring spiroketal derivative and use thereof as anti-diabetic drug” (Chugai Seiyaku Kabushiki Kaisha, priority 2006, dated 2012).

molecular target: T1, human SGLT2 (Homo sapiens, UniProt P31639); assay: Inhibitory activity against methyl-α-D-glucopyranoside uptake of human Na+-glucose cotransporter SGLT2; assay type: cell-based; conditions: CHO-K1 cells stably expressing human SGLT2; methyl-α-D-(U-14C)glucopyranoside uptake, 37° C. for 45 minutes; read-out: Ic50 value (inhibition of SGLT2)
T1 construct: expressed in transfected cells; host or cells: CHO-K1
T1 sequence (P31639 1-672): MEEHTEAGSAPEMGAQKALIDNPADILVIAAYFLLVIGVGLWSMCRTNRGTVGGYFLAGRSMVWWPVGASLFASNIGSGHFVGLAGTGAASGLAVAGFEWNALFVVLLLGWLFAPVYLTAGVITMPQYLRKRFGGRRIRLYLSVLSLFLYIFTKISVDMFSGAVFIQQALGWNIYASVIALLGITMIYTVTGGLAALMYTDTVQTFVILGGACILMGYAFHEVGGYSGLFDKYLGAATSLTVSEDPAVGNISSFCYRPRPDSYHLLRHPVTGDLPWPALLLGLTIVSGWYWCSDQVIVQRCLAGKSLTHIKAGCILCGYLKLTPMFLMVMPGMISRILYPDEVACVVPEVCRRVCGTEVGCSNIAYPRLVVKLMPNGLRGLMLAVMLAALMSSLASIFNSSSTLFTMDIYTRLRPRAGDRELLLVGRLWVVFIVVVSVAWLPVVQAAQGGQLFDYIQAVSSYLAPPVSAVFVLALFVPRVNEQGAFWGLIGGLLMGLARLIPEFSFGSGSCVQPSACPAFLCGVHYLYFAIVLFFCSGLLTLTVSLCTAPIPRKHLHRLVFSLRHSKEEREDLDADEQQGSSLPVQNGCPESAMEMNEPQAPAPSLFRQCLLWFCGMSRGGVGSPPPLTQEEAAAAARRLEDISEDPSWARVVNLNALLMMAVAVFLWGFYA
Text: Evaluation of Inhibitory Activity Against Methyl-α-D-Glucopyranoside Uptake of Human Na^+-Glucose Cotransporter (SGLT1 and SGLT2)
2) Construction of Human SGLT2 Expression Vector
Human SGLT2 cDNA was amplified by PCR with a cDNA library derived from human kidney (Clontech) as a template, synthetic DNA primers and KOD+ DNA Polymerase. The amplified cDNA was inserted into pcRII-Topo vector by using a Topo TA Cloning Dual Promoter kit. E. coli competent cells (TPO10) were transformed with the plasmid vector, cultured in LB medium containing ampicillin (50 mg/L) to grow ampicillin-resistant clones. The plasmid vector containing human SGLT2 cDNA was purified from the clone in a standard manner. Human SGLT2 cDNA added restriction enzyme recognition sites (Xho I at 5′-end, Hind III at 3′-end) was amplified by PCR with the plasmid vector as a template, synthetic DNA primers containing an additional restriction enzyme recognition site and KOD+ DNA Polymerase. This amplified cDNA was digested with Xho I and Hind III, and ligated into expression vector pcDNA3.1(−) digested with Xho I and Hind III by using a Rapid DNA Ligation kit. E. coli competent cells (DH5α) were transformed with the ligated expression vector and grown in ampicillin-containing LB medium. Human SGLT2 expression vector was purified from the ampicillin-resistant clone in a standard manner.
3) Establishment of Cell Lines Stably Expressing Human SGLT1 or Human SGLT2
The human SGLT1 expression vector or the human SGLT2 expression vector was digested with the restriction enzyme Pvu I and transfected into CHO-Kl cells with FuGENE (Roche Diagonostics). After the transfection, the cells were cultured at 37° C. in the presence of 5% CO2 for about 3 weeks in DMEM medium (Gibco) containing penicillin (50 U/mL, SIGMA), streptomycin (50 mg/L, SIGMA), geneticin (200 mg/L, Nacalai Tesque, Inc., Japan) and 20% fetal bovine serum to obtain geneticin-resistant clones. […]

Row | IC50 | Compound
1 | 2 nM | CCc1ccc(Cn2ccc3cc4c(cc32)[C@]2(OC4)O[C@H](CO)[C@@H](O)[C@H](O)[C@H]2O)cc1 [Example 2, (3′R,4′S,5′S,6′R,7S)-1-[(4-ethylphenyl)methyl]-6′-hydroxymethyl-3′,4,5′,6′-tetrahydro-spiro[furo[3,4,f]indole-7(5H),2′-[2H]pyran]-3′,4′,5′-triol]
2 | 3.9 nM | CCc1ccc(Cc2csc3cc4c(cc23)[C@]2(OC4)O[C@H](CO)[C@@H](O)[C@H](O)[C@H]2O)cc1 [Example 1, (3′R,4′S,5S,5′S,6′R)-3-[(4-ethylphenyl)methyl]-6′-(hydroxymethyl)-3′,4′,5′,6′-tetrahydro-spiro[thieno[2,3,f]isobenzofuran-5(7H),2′-[2H]pyran]-3′,4′,5′-triol]
3 | 5.1 nM | CCc1ccc(Cc2cccc3c4c(sc23)C2(OCC4)O[C@H](CO)[C@@H](O)[C@H](O)[C@H]2O)cc1 (stereo in doubt) [Example 3, (1S,3′R,4′S,5′S,6′R)-8-[(4-ethylphenyl)methyl]-3,3′,4,4′,5′,6′-hexahydro-6′-hydroxymethyl-spiro[2-oxa-9-thia-fluorene-1,2′-[2H]pyran]-3′,4′,5′-triol]
